Data taken from patent US9187472B2 (AbbVie Inc., priority 2012, dated 2015).

What was measured:
NAMPT = NAMPT (Homo sapiens, UniProt P43490); assay: TR-FRET Binding Assay of NAMPT with PRPP; conditions: with 200 μM PRPP and 2.5 mM ATP; 2 nM NAMPT, 2 nM probe, 16 hours equilibration
In short: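 Run in the presence of substrates (200 μM PRPP, 2.5 mM ATP) with final 2 nM NAMPT, 2 nM probe, 1 nM Tb-anti-His antibody and 2% DMSO. Mixtures equilibrated 16 h before TR-FRET measurement so test compounds could be enzymatically modified.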

PC3 cells = assay: NAMPT Cell Proliferation Assay; assay type: cell-based; conditions: Homo sapiens, PC-3, 120 h, 5 days incubation, cell viability by Cell Titer Glo
In short: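 PC3 cells were plated at 500 cells/well in RPMI with 10% heat-inactivated FBS, left to attach overnight, then given compounds in 10-fold dilutions from 10 μM to 1×10^−5 μM. After 5 days at 37° C and 5% CO2, viability was read by luminescence and IC50s came from sigmoidal fits of percent inhibition.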

[1] = biological target: NAMPT (human, recombinant, C-terminally His-tagged) (Homo sapiens, UniProt P43490); assay: Time-Resolved Fluorescence Resonance Energy Transfer (TR-FRET) Binding Assay of NAMPT; conditions: without substrates; 6.8 nM NAMPT, 200 nM probe, 3 hours equilibration
In short: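 Probe displacement by compound was measured with 6.8 nM NAMPT, 200 nM Oregon Green 488-conjugated nicotinamide-competitive inhibitor probe and 1 nM Tb-anti-His antibody in 50 mM HEPES pH 7.5, 100 mM NaCl, 10 mM MgCl2, 1 mM DTT, 1% glycerol, 2% DMSO (final). After 3 h at room temperature, TR-FRET was read; IC50 from four-parameter logistic fit.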

Chain of NAMPT (P43490 whole entry): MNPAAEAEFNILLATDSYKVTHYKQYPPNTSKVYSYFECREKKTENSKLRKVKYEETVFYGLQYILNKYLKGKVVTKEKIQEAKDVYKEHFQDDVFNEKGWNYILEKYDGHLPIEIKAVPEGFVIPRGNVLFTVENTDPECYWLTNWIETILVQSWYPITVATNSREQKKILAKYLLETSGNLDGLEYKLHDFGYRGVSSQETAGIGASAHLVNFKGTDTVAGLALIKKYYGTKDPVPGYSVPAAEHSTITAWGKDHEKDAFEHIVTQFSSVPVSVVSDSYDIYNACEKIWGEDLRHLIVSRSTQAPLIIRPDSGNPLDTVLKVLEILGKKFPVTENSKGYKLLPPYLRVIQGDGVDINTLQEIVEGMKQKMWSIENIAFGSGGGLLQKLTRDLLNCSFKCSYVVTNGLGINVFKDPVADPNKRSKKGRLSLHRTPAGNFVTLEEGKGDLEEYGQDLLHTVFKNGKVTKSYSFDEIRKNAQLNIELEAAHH
Chain of NAMPT (human, recombinant, C-terminally His-tagged) (P43490 whole entry): as above

Compound `CC(C)(C)OC(=O)N1CC=C(c2ccc(NC(=O)NCc3ccn4ccnc4c3)c(F)c2)CC1` [Example 290, tert-butyl 4-(3-fluoro-4-{[(imidazo[1,2-a]pyridin-7-ylmethyl)carbamoyl]amino}phenyl)-3,6-dihydropyridine-1(2H)-carboxylate] has an IC50 (NAMPT) of 0.96 nM, an IC50 (PC3 cells) of 72.2 nM and an IC50 [1] of 415 nM.
With `O=C(CC1CCOC1)Nc1ccc(C(=O)NCc2ccc3ncc(Cl)n3c2)cc1` (stereo not drawn) [Example 398, N-[(3-chloroimidazo[1,2-a]pyridin-6-yl)methyl]-4-[(tetrahydrofuran-3-ylacetyl)amino]benzamide] the IC50 (NAMPT) was 0.792 nM, the IC50 (PC3 cells) was 73.6 nM and the IC50 [1] was 210 nM.
`O=C(NCc1ccn2ccnc2c1)c1ccc(OC2CCN(C(=O)CC3CC3)CC2)cc1` [Example 414, 4-{[1-(cyclopropylacetyl)piperidin-4-yl]oxy}-N-(imidazo[1,2-a]pyridin-7-ylmethyl)benzamide] showed an IC50 (NAMPT) of 0.307 nM, an IC50 (PC3 cells) of 853 nM and an IC50 [1] of 2630 nM.
`O=C(NCc1ccn2ccnc2c1)c1ccc(C2CCN(C(=O)c3cccc(OC(F)(F)F)c3)CC2)cc1` [Example 703, N-(imidazo[1,2-a]pyridin-7-ylmethyl)-4-{1-[3-(trifluoromethoxy)benzoyl]piperidin-4-yl}benzamide] was tested, and the IC50 (NAMPT) was 0.824 nM, the IC50 (PC3 cells) was 90.3 nM and the IC50 [1] was 559 nM.
Compound `O=C(CC1CCCC1)Nc1ccc(C(=O)NCc2ccn3ncnc3c2)cc1` [Example 546, 4-[(cyclopentylacetyl)amino]-N-([1,2,4]triazolo[1,5-a]pyridin-7-ylmethyl)benzamide] has an IC50 (NAMPT) of 23.2 nM, an IC50 (PC3 cells) of 2450 nM and an IC50 [1] of 237 nM.
Compound `O=C(NCc1ccn2ccnc2c1)c1ccc(O[C@H]2CCN(C(=O)c3ccccc3)C2)cc1` [Example 353, 4-{[(3S)-1-benzoylpyrrolidin-3-yl]oxy}-N-(imidazo[1,2-a]pyridin-7-ylmethyl)benzamide] has an IC50 (NAMPT) of 0.47 nM, an IC50 (PC3 cells) of 7510 nM and an IC50 [1] of 3170 nM.
In the case of `CC(C)Cn1cc(-c2sc(C(=O)NCc3ccn4ccnc4c3)cc2Cl)cn1` [Example 578, 4-chloro-N-(imidazo[1,2-a]pyridin-7-ylmethyl)-5-[1-(2-methylpropyl)-1H-pyrazol-4-yl]thiophene-2-carboxamide], the IC50 (NAMPT) is reported as 0.775 nM, the IC50 (PC3 cells) is reported as 4600 nM and the IC50 [1] is reported as 682 nM.
For `CCCC(=O)Nc1ccc(NC(=O)Nc2ccc3nccn3c2)cc1` [Example 44], the IC50 (NAMPT) was 0.496 nM, the IC50 (PC3 cells) was 1580 nM and the IC50 [1] was 396 nM.
Work on `O=C(NCc1ccn2ccnc2c1)Nc1ccc(O[C@@H]2CCN(C(=O)c3ccccc3Cl)C2)cc1` [Example 695, 1-(4-{[(3R)-1-(2-chlorobenzoyl)pyrrolidin-3-yl]oxy}phenyl)-3-(imidazo[1,2-a]pyridin-7-ylmethyl)urea] yielded an IC50 (NAMPT) of 0.621 nM, an IC50 (PC3 cells) of 5.82 nM and an IC50 [1] of 13.7 nM.
Work on `CC(C)(C)OC(=O)N1CC(c2ccc(NC(=O)NCc3ccn4ccnc4c3)cc2)C1` [Example 364, tert-butyl 3-(4-{[(imidazo[1,2-a]pyridin-7-ylmethyl)carbamoyl]amino}phenyl)azetidine-1-carboxylate] yielded an IC50 (NAMPT) of 0.172 nM, an IC50 (PC3 cells) of 31 nM and an IC50 [1] of 135 nM.
`O=C(NCc1ccn2ccnc2c1)Nc1ccc(O[C@@H]2CCN(C(=O)c3ccc(C(F)(F)F)cc3)C2)cc1` [Example 693, 1-(imidazo[1,2-a]pyridin-7-ylmethyl)-3-[4-({(3R)-1-[4-(trifluoromethyl)benzoyl]pyrrolidin-3-yl}oxy)phenyl]urea] was tested, and the IC50 (NAMPT) was 1.42 nM, the IC50 (PC3 cells) was 652 nM and the IC50 [1] was 781 nM.
In the case of `O=C(CCc1ccccc1)Nc1ccc(NC(=O)NCc2ccc3nccn3c2)cc1` [Example 279, N-(4-{[(imidazo[1,2-a]pyridin-6-ylmethyl)carbamoyl]amino}phenyl)-3-phenylpropanamide], the IC50 (NAMPT) is reported as 0.437 nM, the IC50 (PC3 cells) is reported as 869 nM and the IC50 [1] is reported as 68.8 nM.
In the case of `O=C(NCc1ccn2ccnc2c1)Nc1ccc(O[C@@H]2CCN(C(=O)[C@@H]3CCCO3)C2)cc1` [Example 336, 1-(imidazo[1,2-a]pyridin-7-ylmethyl)-3-[4-({(3R)-1-[(2S)-tetrahydrofuran-2-ylcarbonyl]pyrrolidin-3-yl}oxy)phenyl]urea], the IC50 (NAMPT) is reported as 0.264 nM, the IC50 (PC3 cells) is reported as 139 nM and the IC50 [1] is reported as 334 nM.
In the case of `O=C(NCc1ccn2ccnc2c1)Nc1ccc(OC2CCN(C(=O)c3ccc(F)c(F)c3)CC2)cc1` [Example 729, 1-(4-{[1-(3,4-difluorobenzoyl)piperidin-4-yl]oxy}phenyl)-3-(imidazo[1,2-a]pyridin-7-ylmethyl)urea], the IC50 (NAMPT) is reported as 0.765 nM, the IC50 (PC3 cells) is reported as 45.9 nM and the IC50 [1] is reported as 428 nM.
`Cn1cccc1CCC(=O)N(C[C@H]1CCCO1)c1ncc(C(=O)NCc2ccn3ccnc3c2)s1` [Example 203, N-(imidazo[1,2-a]pyridin-7-ylmethyl)-2-{[3-(1-methyl-1H-pyrrol-2-yl)propanoyl][(2R)-tetrahydrofuran-2-ylmethyl]amino}-1,3-thiazole-5-carboxamide] showed an IC50 (NAMPT) of 0.21 nM, an IC50 (PC3 cells) of 2.39 nM and an IC50 [1] of 13.7 nM.
Work on `CC(C)CCNC(=O)c1cnc(NC(=O)NCc2ccn3ccnc3c2)s1` [Example 407, 2-{[(imidazo[1,2-a]pyridin-7-ylmethyl)carbamoyl]amino}-N-(3-methylbutyl)-1,3-thiazole-5-carboxamide] yielded an IC50 (NAMPT) of 0.659 nM, an IC50 (PC3 cells) of 1310 nM and an IC50 [1] of 220 nM.
`COCC(C)C(=O)Nc1ccc(NC(=O)Nc2ccc3nccn3c2)cc1` (stereo not drawn) [Example 43] showed an IC50 (NAMPT) of 0.169 nM, an IC50 (PC3 cells) of 7450 nM and an IC50 [1] of 4350 nM.
With `CC(C)(C#N)Cn1cc(-c2ccc(C(=O)NCc3ccn4ccnc4c3)s2)cn1` [Example 577, 5-[1-(2-cyano-2-methylpropyl)-1H-pyrazol-4-yl]-N-(imidazo[1,2-a]pyridin-7-ylmethyl)thiophene-2-carboxamide] the IC50 (NAMPT) was 0.361 nM, the IC50 (PC3 cells) was 2.15 nM and the IC50 [1] was 18.9 nM.
`O=C(NCc1ccn2ccnc2c1)c1ccc(C2CCN(C(=O)c3cccnc3)C2)s1` (stereo not drawn) [Example 798, N-(imidazo[1,2-a]pyridin-7-ylmethyl)-5-[1-(pyridin-3-ylcarbonyl)pyrrolidin-3-yl]thiophene-2-carboxamide] showed an IC50 (NAMPT) of 0.47 nM, an IC50 (PC3 cells) of 9.63 nM and an IC50 [1] of 95.7 nM.
With `O=C(NCc1ccc2nccn2c1)c1ccc(OC2CCN(C(=O)CC3CC3)CC2)cc1` [Example 172, 4-{[1-(cyclopropylacetyl)piperidin-4-yl]oxy}-N-(imidazo[1,2-a]pyridin-6-ylmethyl)benzamide] the IC50 (NAMPT) was 3.55 nM, the IC50 (PC3 cells) was 223 nM and the IC50 [1] was 2210 nM.
`CC(C)(O)C(=O)N1CC(Oc2ccc(NC(=O)NCc3ccn4ccnc4c3)cc2)C1` [Example 430, 1-(4-{[1-(2-hydroxy-2-methylpropanoyl)azetidin-3-yl]oxy}phenyl)-3-(imidazo[1,2-a]pyridin-7-ylmethyl)urea] was tested, and the IC50 (NAMPT) was 0.264 nM, the IC50 (PC3 cells) was 88.6 nM and the IC50 [1] was 292 nM.
`O=C(NCc1cn2ccnc2cn1)c1ccc(C2CCN(C(=O)c3ccc(F)cc3)CC2)cc1` [Example 812, 4-[1-(4-fluorobenzoyl)piperidin-4-yl]-N-(imidazo[1,2-a]pyrazin-6-ylmethyl)benzamide] showed an IC50 (NAMPT) of 2.57 nM, an IC50 (PC3 cells) of 38.8 nM and an IC50 [1] of 80 nM.
In the case of `O=C(NCc1ccn2ccnc2c1)Nc1ccc(O[C@@H]2CCN(C(=O)c3ccccc3F)C2)cc1` [Example 689, 1-(4-{[(3R)-1-(2-fluorobenzoyl)pyrrolidin-3-yl]oxy}phenyl)-3-(imidazo[1,2-a]pyridin-7-ylmethyl)urea], the IC50 (NAMPT) is reported as 1.32 nM, the IC50 (PC3 cells) is reported as 7.21 nM and the IC50 [1] is reported as 16 nM.
Compound `N#Cc1ccccc1C(=O)N1CCC(c2ccc(C(=O)NCc3ccn4ccnc4c3)cc2)CC1` [Example 737, 4-[1-(2-cyanobenzoyl)piperidin-4-yl]-N-(imidazo[1,2-a]pyridin-7-ylmethyl)benzamide] has an IC50 (NAMPT) of 0.612 nM, an IC50 (PC3 cells) of 4.05 nM and an IC50 [1] of 70.4 nM.
`O=C(NCc1ccn2ccnc2c1)c1ccc(N2C[C@H](O)CC2=O)s1` [Example 267, 5-[(4R)-4-hydroxy-2-oxopyrrolidin-1-yl]-N-(imidazo[1,2-a]pyridin-7-ylmethyl)thiophene-2-carboxamide] was tested, and the IC50 (NAMPT) was 0.291 nM, the IC50 (PC3 cells) was 665 nM and the IC50 [1] was 54.3 nM.
`O=C(Nc1ccc(C(=O)NCCCN2CCCCC2)cc1)Nc1ccc2nccn2c1` [Example 9, 4-[(imidazo[1,2-a]pyridin-6-ylcarbamoyl)amino]-N-[3-(piperidin-1-yl)propyl]benzamide] gave an IC50 (NAMPT) of 0.459 nM, an IC50 (PC3 cells) of 649 nM and an IC50 [1] of 1720 nM.
`O=C(NCc1ccn2ccnc2c1)c1ccc(C2CN(C(=O)c3ccccc3Cl)C2)cc1` [Example 643, 4-[1-(2-chlorobenzoyl)azetidin-3-yl]-N-(imidazo[1,2-a]pyridin-7-ylmethyl)benzamide] was tested, and the IC50 (NAMPT) was 0.552 nM, the IC50 (PC3 cells) was 6.9 nM and the IC50 [1] was 28 nM.
Compound `Cc1cc(CC(=O)N(CC2CCCO2)c2ncc(C(=O)NCc3ccc4nccn4c3)s2)nn1C` (stereo not drawn) [Example 190, 2-{[(1,5-dimethyl-1H-pyrazol-3-yl)acetyl](tetrahydrofuran-2-ylmethyl)amino}-N-(imidazo[1,2-a]pyridin-6-ylmethyl)-1,3-thiazole-5-carboxamide] has an IC50 (NAMPT) of 4.57 nM, an IC50 (PC3 cells) of 14.9 nM and an IC50 [1] of 400 nM.
